Assay results taken from ChEMBL document CHEMBL1201862, “PubChem BioAssay data set” (2004).
Activity calls are given as the source filed them.

Columns and labels:
[1] = biological target: Sphingosine 1-phosphate receptor 2 (Homo sapiens, UniProt O95136); experiment: Dose Response Cell Based Assay for Antagonists of the S1P2 Receptor. [Related pubchem assays: 856, 736 ]; type: functional
Galanin receptor type 2 = Galanin receptor type 2 (Homo sapiens, UniProt O43603); experiment: Dose Response cell-based high-throughput screening assay to identify antagonists of galanin receptor 2 (GALR2). [Related pubchem assays: 828, 866 ]; type: functional
Protein Tat = Protein Tat (Human immunodeficiency virus type 1 group M subtype B (isolate HXB2)(HIV-1), UniProt P04608); type: functional;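 also: tat binding to TAR RNA read out by fluorescence polarization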
[2] = cytotoxicity in HEK-293T cells, dose response, cytotoxicity control for BCR NF-kB inhibitor project, luminescence, B-cell screen hits (AID 489021); type: functional, cell-based;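 also: HEK-293T cells carrying an NF-kB luciferase reporter; cells exposed to compound for about 14 hours before viability readout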
[3] = biological target: T1, COUP transcription factor 2 (Homo sapiens, UniProt P24468); experiment: Luminescence-based cell-based high throughput dose response assay to identify inhibitors of COUP-TFII (NR2F2).; type: functional;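 also: HEK293 cells transiently cotransfected with COUP-TFII expression vector and reporter; luciferase reporter luminescence driven by COUP-TFII from the pX2-168 reporter plasmid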
T1 sequence (P24468 whole entry): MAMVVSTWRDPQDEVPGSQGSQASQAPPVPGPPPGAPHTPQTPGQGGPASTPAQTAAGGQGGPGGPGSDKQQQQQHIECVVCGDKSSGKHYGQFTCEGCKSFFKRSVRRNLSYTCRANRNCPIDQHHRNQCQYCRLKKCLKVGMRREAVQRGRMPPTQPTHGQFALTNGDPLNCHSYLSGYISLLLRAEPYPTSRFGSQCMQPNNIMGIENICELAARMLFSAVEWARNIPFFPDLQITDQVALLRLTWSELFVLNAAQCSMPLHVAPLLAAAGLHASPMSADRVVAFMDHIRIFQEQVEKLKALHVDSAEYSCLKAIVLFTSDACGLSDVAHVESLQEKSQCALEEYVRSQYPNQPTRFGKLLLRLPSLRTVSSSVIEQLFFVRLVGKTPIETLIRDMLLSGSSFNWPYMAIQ

[4] = biological target: Mitogen-activated protein kinase 10 (Homo sapiens, UniProt P53779); experiment: Dose response biochemical screening assay for inhibitors of c-Jun N-Terminal Kinase 3 (JNK3). [Related pubchem assays: 746 ]
[5] = HEp-2 cell cytotoxicity, dose response, cytotoxicity control for RSV inhibitor project, HTS (AID 2410); type: functional; details: human respiratory syncytial virus
Genome polyprotein = Genome polyprotein (Hepatitis C virus, UniProt Q2Q167); experiment: HCV core protein dimerization inhibitors, dose response, biochemical, TR-FRET (AID 2159); design: species or system Hepacivirus hominis;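 also: blocks dimerization of HCV core protein measured by TR-FRET between tagged core106 pairs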
[6] = biological target: Glucose-6-phosphate 1-dehydrogenase (Homo sapiens, UniProt P11413); experiment: human G6PD enzyme inhibitors, dose response, selectivity assay for P. falciparum G6PD inhibitor project, biochemical, fluorescence (AID 504792); type: functional
Major prion protein = Major prion protein (Homo sapiens, UniProt P04156); type: functional, cell-based
cells [7] = experiment: cells
[8] = biological target: Heat shock protein HSP 90-alpha (Homo sapiens, UniProt P07900); experiment: Luminescence-based dose response biochemical high throughput screening assay for inhibitors of the Heat Shock Protein 90 (HSP90). [Related pubchem assays: 1831 (Summary AID.), 1846 (Confirmation screen.), 1789 (Primary screen.)]
Large T antigen = Large T antigen (Simian virus 40, UniProt P03070); type: functional, Betapolyomavirus macacae;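 also: Confirmatory-stage PubChem screen for compounds that inhibit SV40 T antigen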
[9] = Luminescence Cell-Based Dose Confirmation HTS to Identify Inhibitors of Polyadenylation.; type: functional
[10] = inhibitors of intracellular T. cruzi replication, confirmation, NIH3T3 host cells, beta-gal luminescence (AID 2044); type: functional, cell-based;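 also: intracellular parasites grown in NIH/3T3 mouse fibroblasts as host cells; luminescent beta-galactosidase reporter signal from transgenic T. cruzi replicating inside host cells; inhibitors lower the luminescence signal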
[11] = Luminescence-based dose response cell-based high throughput screening assay for cytotoxic compounds using the IEC-6 intestinal epithelial cell line. [Related pubchem assays: 1858 (Summary AID.), 1825 (Counterscreen.), 1907 (Confirmation screen.)]; type: functional
[12] = cytotoxicity toward NIH3T3 fibroblasts, dose response, counter-screen, cell-based, ATP luminescence, mouse fibroblasts (AID 2010); type: functional;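 also: cells exposed to compound for about 90 hours before reading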
INS1 = experiment: beta cell apoptosis inhibitors, cytokine rescue, dose response, luminescence, retest (AID 449756); type: functional, cell-based; details: Rattus norvegicus;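 also: cell death triggered by IL-1 beta plus TNF-alpha plus IFN-gamma mixture; protective hits raise ATP signal compared with cytokine alone wells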
[13] = inhibitors of HIV Env-driven cell fusion, dose response, cherry-pick (AID 652057); type: functional, cell-based
[14] = CEM21 lymphoblast cell cytotoxicity, dose response, cytotoxicity control for viral fusion inhibitor project, CellTiter-Glo luminescence, cherry-picked (AID 652042); type: functional, cell-based;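 also: potency for signal decrease meaning cytotoxicity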
[15] = ZM109 Env clade C HIV-1 fusion inhibitors, dose response, HeLa effector, CEM target cells, luciferase, cherry-pick (AID 652058); type: functional, cell-based
[16] = off-target signal loss in HeLa-CEM21 co-culture – HeLa F-luc CTL cells, cherry-picked, counter-screen for HIV-1 Env fusion inhibitor project, dose response (AID 652040); type: functional, cell-based;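 also: potency for signal decrease marking cytotoxic or nonspecific inhibition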
[17] = inhibitors of clade B AD8 Env fusion, dose response, cell-based, cherry-pick (AID 652062); type: functional;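 also: luciferase signal from cell-cell fusion driven by HIV-1 clade B AD8 Env; potency is for inhibitors of fusion seen as a drop in luminescence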
[18] = system: Streptococcus sp. 'group A'; experiment: growth inhibition of control SK(-) GAS strain, dose response, counter-screen for streptokinase expression inhibitor project, luminescence, kanamycin, BacTiterGlo, confirmation (AID 1900); type: functional, organism-based
BJ [19] = experiment: cytotoxicity toward BJ-TERT fibroblasts, dose response, cell-based, RAS-independent, luminescence (AID 1933); type: functional; details: Homo sapiens
cells [20] = type: functional, cell-based
Beta-galactosidase [21] = biological target: T2, Beta-galactosidase (Escherichia coli, UniProt Q8VNN2); experiment: PubChem AID 485352; type: functional
Streptokinase A = biological target: T3, Streptokinase A (Streptococcus pyogenes serotype M1, UniProt P10520); experiment: S. pyogenes streptokinase expression inhibitors, potency, dose response, plasminogen activation absorbance, OD405 (AID 1914); type: functional, Streptococcus pyogenes M1 GAS;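 also: secreted streptokinase activity via plasminogen activation per viability signal from cell pellet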
T3 sequence (P10520 whole entry): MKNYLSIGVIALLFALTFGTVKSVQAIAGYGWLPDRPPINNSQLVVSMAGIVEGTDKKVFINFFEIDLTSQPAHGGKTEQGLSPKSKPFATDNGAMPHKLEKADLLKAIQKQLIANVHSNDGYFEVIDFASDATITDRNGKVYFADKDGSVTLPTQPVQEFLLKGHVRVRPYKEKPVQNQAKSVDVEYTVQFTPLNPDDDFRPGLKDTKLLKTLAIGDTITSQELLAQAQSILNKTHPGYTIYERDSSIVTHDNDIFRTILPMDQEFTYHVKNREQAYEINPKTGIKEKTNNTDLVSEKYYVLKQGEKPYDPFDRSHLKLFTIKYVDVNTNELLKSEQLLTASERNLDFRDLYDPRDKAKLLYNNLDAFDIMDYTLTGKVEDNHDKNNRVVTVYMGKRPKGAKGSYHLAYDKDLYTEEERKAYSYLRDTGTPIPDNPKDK

BJ [22] = experiment: cells; type: functional, cell-based; details: Homo sapiens
[23] = biological target: T4, Type-1 angiotensin II receptor (Homo sapiens, UniProt P30556); experiment: AT1 receptor antagonists, dose response, selectivity assay for APJ receptor antagonist project, cell-based, uHTS hits (AID 463214); type: functional;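 also: antagonist potency against angiotensin II stimulated AT1 response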
T4 sequence (P30556 whole entry): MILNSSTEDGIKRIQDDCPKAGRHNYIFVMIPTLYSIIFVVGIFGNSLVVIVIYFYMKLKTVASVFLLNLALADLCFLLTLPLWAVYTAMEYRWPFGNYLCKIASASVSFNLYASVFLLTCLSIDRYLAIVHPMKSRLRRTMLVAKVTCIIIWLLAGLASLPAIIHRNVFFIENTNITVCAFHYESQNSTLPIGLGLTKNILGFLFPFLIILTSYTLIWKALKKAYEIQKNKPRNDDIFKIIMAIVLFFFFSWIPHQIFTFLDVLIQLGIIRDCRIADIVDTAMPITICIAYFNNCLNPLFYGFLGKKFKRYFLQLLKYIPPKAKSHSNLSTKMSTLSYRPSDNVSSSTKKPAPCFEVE

cells [24] = type: functional, cell-based; remark: listed apart in the source
[25] = biological target: T5, Kappa-type opioid receptor (Homo sapiens, UniProt P41145); type: functional
Beta-galactosidase [26] = biological target: T2, Beta-galactosidase; type: functional
BJ [27] = experiment: cytotoxicity toward BJ-TERT-LT-ST fibroblasts, dose response, cell-based, RAS-independent, luminescence (AID 1935); type: functional; details: Homo sapiens;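 also: BJ fibroblasts immortalized with TERT plus LT and ST oncogenes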
[28] = biological target: T5, Kappa-type opioid receptor; type: functional; remark: listed apart in the source
[29] = cytotoxicity toward DRD oncogenic fibroblasts, dose response, cell-based, non-viral oncogenic, luminescence (AID 1934); type: functional; details: Homo sapiens
Streptococcus = experiment: Group A Streptococcus viability loss, dose response, counter-screen for streptokinase expression inhibitor project, luminescence, BacTiterGlo (AID 1915); type: functional, organism-based;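 also: potency for reduction of bacterial viability or growth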
[30] = THP-1 cell cytotoxicity, dose response, cytotoxicity control for non-replicating M. tuberculosis project (AID 489025); type: functional
[31] = HepG2 cell cytotoxicity, dose response, cytotoxicity control for non-replicating M. tuberculosis project (AID 489018); type: functional; details: Mycobacterium tuberculosis
[32] = Vero E6 cell cytotoxicity, dose response, cytotoxicity control for non-replicating M. tuberculosis project, secondary assay (AID 492998); type: functional, VeroE6; details: Vero C1008
[33] = cytotoxicity in HEK-293T cells, dose response, cytotoxicity control for TCR NF-kB inhibitor project, luminescence, T-cell screen hits (AID 489026); type: functional, cell-based;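 also: cells exposed to compound about 14 hours before the viability readout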
[34] = biological target: T6, Heat shock factor protein 1 (Mus musculus, UniProt P38532); experiment: HSF1 potentiators in luciferase reporter cells, confirmation, cell-based, NIH3T3, luminescence, dose retest (AID 435004); type: functional;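 also: stress induced by proteasome inhibitor MG132 added 30 min after compound; luciferase reporter driven by HSF1 response element in NIH3T3 cells; actives raise luminescence as potentiators of the MG132 stress response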
T6 sequence (P38532 whole entry): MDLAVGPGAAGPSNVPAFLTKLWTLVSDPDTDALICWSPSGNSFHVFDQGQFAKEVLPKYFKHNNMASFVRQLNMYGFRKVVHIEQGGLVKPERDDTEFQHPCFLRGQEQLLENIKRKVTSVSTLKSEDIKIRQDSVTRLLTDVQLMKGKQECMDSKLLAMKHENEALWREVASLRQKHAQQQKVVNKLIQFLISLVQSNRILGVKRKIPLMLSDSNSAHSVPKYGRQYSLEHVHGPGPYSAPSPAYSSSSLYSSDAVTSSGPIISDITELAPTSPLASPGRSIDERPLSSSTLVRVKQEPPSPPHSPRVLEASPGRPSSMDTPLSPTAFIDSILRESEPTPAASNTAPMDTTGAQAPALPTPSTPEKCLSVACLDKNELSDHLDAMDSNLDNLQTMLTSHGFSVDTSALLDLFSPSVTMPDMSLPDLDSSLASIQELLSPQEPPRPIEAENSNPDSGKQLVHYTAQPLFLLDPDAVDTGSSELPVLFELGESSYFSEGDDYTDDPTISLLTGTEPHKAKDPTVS

cells [35] = type: functional
BJ [36] = experiment: cytotoxicity toward Ras-transformed BJeLR fibroblasts, dose response, cell-based, alamar blue fluorescence, cherrypicked samples (AID 2631); type: functional; details: Homo sapiens;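 also: confirmatory dose-response assay in RAS-dependent BJ fibroblasts engineered with TERT, LT and ST, with cytotoxicity read by fluorescence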
Vero = experiment: cells; type: functional; details: Chlorocebus sabaeus
[37] = AlphaScreen signal interference compounds, dose response, artefact control for ARNT-TACC3 interaction inhibitor project, biochemical, luminescence, cherry-pick (AID 651705); type: functional;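 also: AlphaScreen bead proximity signal that flags compounds interfering with the detection technology; potency reflects signal decrease which marks the compound as an assay artifact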

O=C(Nc1ccc(F)cc1)c1sccc1S(=O)(=O)Cc1cccc(C(F)(F)F)c1
IC50 [1]: 18.4 µM (not active)

O=C(Nc1ccc2[nH]c(-c3cccnc3)nc2c1)C12CC3CC(CC(C3)C1)C2
IC50 (Galanin receptor type 2): > 42 µM (not active)

CCOC(=O)C1=C(O)/C(=C/c2ccc(CNC(=O)C(=O)Nc3ccc(C)cc3)o2)N=C1C
IC50 (Protein Tat): 47.8 µM (inconclusive)

Cc1cc(C)c(S(=O)(=O)NCc2ccncc2)c(C)c1
IC50 (Galanin receptor type 2): > 42 µM (not active) | IC50 [2]: > 80 µM (inactive) | IC50 [3]: 4.96 µM (active)

Cc1cccc(-n2ncc3c(NCc4cccs4)ncnc32)c1
IC50 [4]: 72 µM (not active)

Brc1cc2[nH]cnc2c2ccccc12
CC50 [5]: 37.8 µM (active) | IC50 (Genome polyprotein): > 49.8 µM (not active) | IC50 [6]: > 80 µM (inactive) | IC50 (Major prion protein): 5.96 µM (active) | IC50 (cells [7]): > 138 µM (inactive)

O=c1c2c(nc3n1CCCCC3)sc1c(O)cccc12
IC50 [4]: 55.7 µM (not active)

C=CCc1ccc(OCc2ccc(C(=O)OC)o2)c(OC)c1
IC50 [8]: 7.02 µM (active)

CC(NC(=O)Nc1ccc(O)cc1)(C(F)(F)F)C(F)(F)F
IC50 (Large T antigen): 14.3 µM (active) | IC50 (Protein Tat): 44.8 µM (inconclusive)

O=C(c1sc2cc(C(F)(F)F)cnc2c1-c1ccccc1)N1CCOCC1
IC50 [1]: > 30 µM (not active)

Cc1nc2ccc(NC(=O)Cc3ccc4c(c3)OCCO4)cc2s1
EC50 [9]: > 120 µM (not active)

CC(C)(C)c1ccc(C2CC2C(=O)N/N=C\c2ccc[nH]2)cc1 (stereo not drawn)
EC50 [10]: 0.389 µM (active) | IC50 [11]: 1.44 µM (active) | EC50 [12]: 3.25 µM (active) | AC50 (INS1): 0.854 µM (active) | AC50 [13]: 3.52 µM (active) | AC50 [14]: 4.53 µM (active) | AC50 [15]: 1.5 µM (active) | AC50 [16]: 2.75 µM (active) | AC50 [17]: 1.97 µM (active) | IC50 [3]: 2.66 µM (active)

O=C(N/N=C(\c1ccccc1)c1cccnc1)c1cccc(F)c1
EC50 [18]: 5.5 µM (active) | EC50 (BJ [19]): 12.4 µM (active) | EC50 (cells [20]): 28.7 µM (active) | EC50 (Beta-galactosidase [21]): > 40 µM (inactive) | EC50 (Streptokinase A): > 150 µM (not active) | EC50 (BJ [22]): 5.95 µM (active) | IC50 [11]: 0.747 µM (active) | IC50 [23]: 10.8 µM (active) | EC50 (cells [24]): > 350 µM (not active) | IC50 [25]: 13.1 µM (active) | EC50 (Beta-galactosidase [26]): > 31.5 µM (inactive) | EC50 (BJ [27]): 4.43 µM (active) | IC50 [28]: > 32 µM | EC50 [29]: 5.35 µM (inconclusive) | EC50 (Streptococcus): 11 µM (active) | CC50 [30]: 0.726 µM (active) | CC50 [31]: 9.37 µM (active) | CC50 [32]: 1.18 µM (active) | IC50 [33]: > 80 µM (inactive) | EC50 [34]: 21.5 µM (active) | IC50 (cells [35]): 1.73 µM (active) | EC50 (BJ [36]): 0.939 µM (active) | AC50 (INS1): 0.519 µM (active) | CC50 (Vero): 1.7 µM (active) | AC50 [37]: 120 µM (active)
